# Reference: ChEMBL document CHEMBL1146577, “Sulfemodin 8-O-beta-D-glucoside, a new sulfated anthraquinone glycoside, and antioxidant phenolic compounds from Rheum emodi” (J Nat Prod, 2003)
# Tested on: Radical scavenging activity
# Test: Antioxidant activity assessed as DPPH radical scavenging activity
# Type: functional
row,IC50,SMILES
1,18.5 µg/mL,COc1cc(O[C@@H]2O[C@H](CO)[C@@H](O)[C@H](O)[C@H]2O)c2c(O)c(C(C)=O)c(C)cc2c1
2,> 100 µg/mL,COc1cc(O)c2c(c1)C(=O)c1cc(C)cc(O[C@@H]3O[C@H](CO)[C@@H](O)[C@H](O)[C@H]3O)c1C2=O
3,> 100 µg/mL,Cc1cc(O[C@@H]2O[C@H](CO)[C@@H](O)[C@H](O)[C@H]2O)c2c(c1)C(=O)c1cc(O)cc(O)c1C2=O
4,1.7 µg/mL,Oc1cc(O)c2c(c1)O[C@H](c1ccc(O)c(O)c1)[C@H](O)C2 [(-)-EPICATECHIN]
5,3.9 µg/mL,O=C1O[C@H]([C@@H](O)CO)C(O)=C1O [ASCORBIC ACID]
6,4.7 µg/mL,COc1cc(O)cc2c1C(=O)C(O)(Cc1ccc(O)cc1)O2 (stereo unspecified) [CARPUSIN]
7,> 100 µg/mL,Cc1cc(O)c2c(c1)C(=O)c1cccc(O)c1C2=O [CHRYSOPHANOL]
8,> 100 µg/mL,Cc1cc(O)c2c(c1)C(=O)c1cc(O)cc(O)c1C2=O [EMODIN]
9,5.3 µg/mL,O=C1c2c(O)cc(O)cc2OC1(O)Cc1ccc(O)cc1 (stereo unspecified) [MAESOPSIN]
10,> 100 µg/mL,COc1cc(O)c2c(c1)C(=O)c1cc(C)cc(O)c1C2=O [PHYSCION]
11,> 100 µg/mL,Cc1cc(O)c2c(c1)C(=O)c1cccc(O[C@@H]3O[C@H](CO)[C@@H](O)[C@H](O)[C@H]3O)c1C2=O [PULMATIN]
